Test results reported in patent US5885786A, “Methods for screening of substances for inhibition of multidrug resistance” (priority 1996, dated 1999).
Entries after “also recorded” stand apart in the source; their conditions may differ. Read-outs that look alike come from different tables or passages of the source.

Key:
[1] = system: glycosphingolipid synthesis in MCF-7-AdrR cells; assay: Synthesis of glycosphingolipids in MCF-7-AdrR cells labeled with [3H]galactose; assay type: cell-based; conditions: for inhibition at 5 µM: 5.0 μM tamoxifen, [3H]galactose 24 h, FIG. 10
Experimental: FIG. 10. […] Glc-cer, glycosylceramide; Lac-cer, lactosylceramide; Con, control; Tam, tamoxifen.
MCF-7 cells, grown in medium containing 10% FBS, were switched to media containing 5% FBS. Cell lipids were radiolabeled by adding [^3 H]serine (2.0 μCi/ml), [^3 H]palmitic acid (1.0 μCi/ml), or [^3 H]galactose (1.0 μCi/ml) to the culture medium for the indicated times. Other radiolabels can be substituted. Cells were then rinsed twice with PBS, pH 7.4, and 2 ml of ice-cold methanol containing 2% acetic acid was added. The cells were scraped free, transferred to glass test tubes (13×100 mm), and lipids were extracted by the addition of chloroform (2 ml) followed by water (2 ml). The resulting organic lower phase was withdrawn and evaporated under a stream of nitrogen. Lipids were resuspended in 100 μL of chloroform/methanol (1:1, v/v), and aliquots were applied to TLC plates.
When using [^3 H]galactose, radiolabeled cells were transferred to glass tubes with PBS (1 ml), glucocerebroside (2.5 μg) was added to aid recovery, and lipids were extracted consecutively three times with 2 ml of chloroform/methanol (1:1, v/v).

[2] = system: MCF-7-AdrR cells; assay: Temporal pattern of tamoxifen influence on total lipid, glycosylceramide, sphingomyelin and ceramide metabolism; assay type: cell-based
Experimental: FIG. 13A, FIG. 13B and FIG. 13C. Temporal Pattern for the Influence of Tamoxifen on Total Lipid, Glycosylceramide, and Sphingomyelin Metabolism in MCF-7-AdrR Cells. Cells, preincubated in the absence or presence of tamoxifen (20 μM) for 30 min, were labeled by addition of 1.0 μCi/ml [^3 H]palmitic acid for the times shown using RPMI-1640 medium containing 5% FBS. At each time point, cultures were washed with PBS and lipids were extracted as described under Example I. Aliquots of the labeling medium were counted directly by liquid scintillation spectrometry to determine [^3 H]palmitic acid uptake and incorporation into total cell lipids (FIG. 13A). Glycosylceramide (FIG. 13B) and sphingomyelin (FIG. 13C) levels were evaluated by TLC using solvent system I and II, respectively, followed by quantitation of radiolabel in the relevant regions as detailed in Example I. Results are the mean±SEM of duplicate determinations from two separate experiments.
FIG. 14A and FIG. 14B. Effect of Tamoxifen on Ceramide Synthesis and Glycosylation in MCF-7-AdrR Cells. FIG. 14: A Influence of tamoxifen on ceramide synthesis. The experiment was conducted as described in the legend to FIG. 13. Aliquots of the total lipid extract were based-hydrolyzed as described in Example I, separated by TLC using solvent system IV, and the resolved [^3 H]ceramide was quantitated by liquid scintillation spectrometry. Results are the mean±SEM of duplicate determinations from two separate experiments. FIG. 14B: Effect of tamoxifen on glycosylation of C6 -ceramide. Cells, in 100×20 mm culture dishes, were preincubated without or with 5.0 μM tamoxifen for 30 min, followed by incubation without or with 5.0 μM C6 -ceramide:BSA (prepared at a 1:1 molar ratio) for an additional 30 min. Cells were labeled thereafter with 1.0 μCi/ml [^3 H]galactose for 24 h. [3H]Galactose uptake was determined and found to be similar in all experimental points (1.0×10^6 cpm/dish). The total extracted lipid was applied to TLC separation and [^3 H]glycosphingolipids were analyzed as described in the legend to FIG. 10. The autoradiography of a representative chromatogram is shown.
Lipid analysis was carried out by TLC using solvent system I: chloroform/methanol/ammonium hydroxide (40:10:1, v/v) for glycosylceramide separation, solvent system II: chloroform/methanol/water (60:40:8, v/v) for sphingoglycolipid separation, or solvent system III: chloroform/methanol/acetic acid/water (50:30:7:3, v/v) for sphingomyelin separation. For determination of ceramides, an aliquot of the chloroform-soluble lipids was base-hydrolyzed in 0.1N KOH in methanol for 1 h at 37° C., lipids were re-extracted, and separated by TLC using solvent system IV: hexane/diethyl ether/formic acid (60:40:1, v/v).
Radiochromatograms were sprayed with EN^3 HANCE, and exposed for 3-7 days for autofluorgraphy. TLC areas, aligned with bands on the autoradiographs or with iodine-stained commercial lipid standards, were scraped from the plate. Water (0.5 ml) was added to the plate scrapings followed by 4.5 ml of EcoLume counting fluid, and the samples were quantitated by liquid scintillation spectrometry.

[3] = system: human melanoma cell lines (M101, M10 and M24); assay: Formation of glycosylceramide in human metastatic melanoma cell lines M101, M10 and M24; assay type: cell-based; conditions: 5.0 μM tamoxifen, 24 h, FIG. 17
Excerpt: FIG. 17. […] Identical aliquots of total lipid extract were applied to TLC, and the plate was exposed for autoradiography.

[4] = system: MCF-7-AdrR cells; assay: Cell proliferation (MTS) assay: adriamycin toxicity and chemosensitization; conditions: for effect on adriamycin toxicity / chemosensitization (in words): 5.0 μM tested drug + adriamycin, 72 h, FIG. 15A, 16B
Excerpt: FIG. 15A and FIG. 15B. […] FIG. 15B: Glycosylceramide levels in MDR Cells following drug treatment. […] In order to avoid differences in [^3 H]glycosylceramide values which account for cell death, the same amount of total radioactive lipid from each sample was applied to TLC separation.
FIG. 16A and FIG. 16B. […] FIG. 16A: Effect of PPMP on cellular glycosylceramide levels. […] [^3 H]Glycosylceramide was quantitated as described in the legend to FIG. 9.
Vehicle (acetone, ethanol) was always added to control (minus drug) wells. The cytotoxic activity of a drug was determined using the Promega CellTiter 96™ AQueous MTS cell proliferation assay kit. Each experimental point was performed in six replicates. MTS/PMS solution (20 μl/well) was aliquoted into all wells, and the cells were incubated for 2-3 h, or until an O.D. of 0.9-1.0 was obtained as a highest reading. Thereafter, absorbence at 490 nm was recorded using an ELISA plate reader (Molecular Devices, San Diego, Calif.).

[5] = system: glycosylceramide synthesis in MCF-7-AdrR cells; assay: Glycosylceramide levels in MDR cells following drug treatment, [3H]serine 48 h; assay type: cell-based; conditions: FIG. 15B
[6] = system: acid sphingomyelinase; conditions: literature; cited from earlier work
[7] = system: P-glycoprotein; conditions: literature; cited from earlier work

CC/C(=C(\c1ccccc1)c1ccc(OCCN(C)C)cc1)c1ccccc1 [tamoxifen]
inhibition at 5 µM ([1]; read-out: reduction of ganglioside level): 33% | inhibition at 5 µM ([1]; read-out: reduction of glycosylceramide level): 69% | inhibition at 5 µM ([1]; read-out: reduction of lactosylceramide level): 74% | synthesis of higher gangliosides (in words) ([1]; tamoxifen, MCF-7-AdrR): suppress synthesis of higher gangliosides | inhibition of glycosylceramide synthesis within 4 h (in words) ([2]; tamoxifen 20 μM, 4 h time frame, FIG. 13B): almost completely inhibited | uptake and incorporation of [3H]palmitic acid (in words) ([2]; tamoxifen 20 μM, FIG. 13A): very similar | onset of glycosylceramide formation inhibition ([2]; tamoxifen 20 μM, FIG. 13B): 15 min | time of half-maximal influence on glycosylceramide formation ([2]; tamoxifen 20 μM, FIG. 13B): 45 min | sphingomyelin synthesis (in words) ([2]; tamoxifen 20 μM, FIG. 13C): not influenced; also recorded: not altered | level of ceramide / ceramide synthesis (in words) ([2]; tamoxifen, FIG. 14A): remained unchanged; also recorded: very similar | inhibition of glucosylceramide formation (in words) [3]: inhibition of glucosylceramide formation | effect on adriamycin toxicity / chemosensitization (in words) [4]: shifted to lower concentrations; also recorded: very potent in cell killing | effect on adriamycin toxicity / chemosensitization (in words) ([4]; listed as Tamoxifen): potently sensitized | effect of the substance alone on cell survival (in words) ([4]; MCF-7-AdrR, alone): not toxic | inhibition of glycosylceramide synthesis (in words) ([5]; 5.0 μM, alone or with adriamycin 2.5 μM): greatly retarded | inhibition of glycosylceramide production, tamoxifen added to adriamycin ([5]; tamoxifen 5.0 μM + adriamycin 2.5 μM): 72% | inhibition of acid sphingomyelinase (in words) [6]: inhibition of acid sphingomyelinase activity | binding to P-glycoprotein (in words) [7]: direct binding to P-glycoprotein
